Key:
Assay type in all cases: in vivo
mice [1] = experiment: Spontaneous motor activity in mice after oral administration (induction of sedation); settings: for ED50: Mus musculus, oral administration, spontaneous motor activity, read-out: ED50 sedation (dose that induces sedation in 50% of animals)
Procedure: The effect of oral administration of both indiplon and the compound of the present invention on the spontaneous motor activity in mice is an accepted model to evaluate the induction of the sedation, an experiment considered predictive of hypnotic efficacy. In this experiment, the ED50—the dose that induces sedation in 50% of animals—was calculated.

mice [2] = experiment: Two-way active avoidance paradigm in mice (amnesia liability); settings: oral administration; for MED amnesia (minimal effective dose that induces statistically significant impairment of memory): two-way active avoidance
Procedure: Finally, a third experiment to evaluate adverse effects was performed. The model was the two-way active avoidance paradigm, which represents a behavioural test useful for evaluating learning and memory processes in mice. In this case, the amnesia liability index was obtained. Since it was reported that benzodiazepine-like drugs induce amnesia, this index allows to determine the margin between the preclinical effective doses that induce sedation compared to the minimal effective dose that induce statistically significant impairment of memory in mice (MED amnesia/ED50 sedation). Therefore, the amnesic liability index was calculated for both compounds. The results obtained are included in Table 1

mice [3] = experiment: EEG recording of the sleep-wake cycle in mice; settings: FIG. 7; for Effect on the three sleep parameters (time of wake, slow wave sleep, paradoxical sleep): mice, EEG, doses ED50, 3-fold and 6-fold
Procedure: This increased sedative/hypnotic efficacy was confirmed by electroencephalographyc (EEG) experiments, when the recording of the sleep-wake cycle in mice was evaluated. Based on the previous experiment, doses were chosen and both compounds were tested at equipotent pharmacological doses (the ED50, 3-fold and 6-fold for both cases).
In FIG. 7, results are expressed as the mean time (min±SEM) spent in each behavioral state during a recording period of 6 h in the same animals (n=9).

[4] = mice n=9, 6 h recording period, largest dose

| Compound | ED50 (mice [1]) [mg/kg] | Amnesic liability Index (MED amnesia/ED50 sedation) (mice [2]) [fold margin] | MED amnesia (minimal effective dose that induces statistically significant impairment of memory) (mice [2]) [mg/kg] | Slow wave sleep (SWS) mean time (mice [3]; [4]) | Effect on the three sleep parameters (time of wake, slow wave sleep, paradoxical sleep) (mice [3]) | Sedative potency relative to indiplon (more potent) (mice [1]; oral, ED50 0.13 vs 0.2 mg/Kg) [%] | Greater margin between sedation induction and amnesia than indiplon (mice [2]) [fold] | Paradoxical sleep (PS) time, change (mice [3]; [4]) | Waking (W) time, change (mice [3]; [4]) |
| --- | --- | --- | --- | --- | --- | --- | --- | --- | --- |
| CC(=O)N(C)c1cccc(-c2ccnc3c(C(=O)c4cccs4)cnn23)c1 [Indiplon, N-{3-[3-(thiophene-2-carbonyl)-pyrazolo[1,5-a]pyrimidin-7-yl]-phenyl}-N-methyl-acetamide, reference compound] | 0.2 | 50 | 10 | less than 140 min | effective only in one parameter (slow wave sleep) | – | – | – | – |
| CC(=O)N(C)c1cc(-c2ccnc3c(C(=O)c4cccs4)cnn23)ccc1F [Compound (I), N-{2-Fluoro-5-[3-(thiophene-2-carbonyl)-pyrazolo[1,5-a]pyrimidin-7-yl]-phenyl}-N-methyl-acetamide] | 0.13 | 75 | 10 | up to 140 min | statistically significant improvement on all three of the parameters evaluated | 35 | 25 | increase | decrease |

From US8273753B2, “Polymorph B of N-{2-Fluoro-5-[3-(thiophene-2-carbonyl)-pyrazolo[1,5-a]pyrimidin-7-yl]-phenyl}-N-methyl-acetamide” (Ferrer International, S.A., priority 2006, dated 2012)
